This passage reports TGI and GI50 results from PubChem BioAssay (NCI).

Some test systems named below: CAKI-1 renal; COLO 205 colon; K-562 leukemia; NCI-H522 lung; NCI/ADR-RES ovarian; OVCAR-5 ovarian; SF-268 CNS; SNB-75 CNS; SW-620 colon; TK-10 renal.
Holding throughout (test): NCI tumour cell line growth inhibition, 48 h

Several values for one entry are separate records, joined by “and”; a condition that tells them apart may be missing. Identical values can stand only once.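 Cultured in 96-well plates, cells were exposed to test compound for 48 hours across five concentrations. GI50 = concentration required for 50% inhibition of growth. TGI marks complete inhibition of growth.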 Where only a bound is given, the exact number is not on record here.

Consider `O=C(NC1=C(Cl)C(=O)c2ccccc2C1=O)C(=O)c1c(O)c2ccccc2oc1=O`, for which the TGI was 22.6 µM in the assay on CAKI-1 renal; 17.9 µM in the assay on COLO 205 colon; above 100 µM with K-562 leukemia; 16.1 µM in the assay on NCI-H522 lung; 20 µM with NCI/ADR-RES ovarian; 26.3 µM in the assay with OVCAR-5 ovarian. The TGI in the assay on SF-268 CNS was 25.6 µM; with SNB-75 CNS it was 25 µM; with SW-620 colon it was above 40.9 µM; with TK-10 renal, 37.7 µM.

`COc1ccc(/C=C/C(=O)c2cc(CN(C)C)c(O)c(CN(C)C)c2)cc1`: the TGI in the assay on CAKI-1 renal was above 100 µM; with COLO 205 colon, 32.5 µM; in the assay on K-562 leukemia, 70.7 µM; with NCI-H522 lung, 43.2 µM; with NCI/ADR-RES ovarian, above 100 µM; with OVCAR-5 ovarian it was above 100 µM. For the same compound, the TGI in the assay on SF-268 CNS, in the assay with SNB-75 CNS, in the assay on SW-620 colon and in the assay on TK-10 renal was above 100 µM each time.

On to `COc1ccc(Cn2c(=O)c(OS(=O)(=O)C(F)(F)F)c(C)c3cc4ccccc4cc32)cc1`, for which the TGI in the assay with CAKI-1 renal, with COLO 205 colon, in the assay with K-562 leukemia, in the assay on NCI-H522 lung, in the assay with NCI/ADR-RES ovarian and in the assay with OVCAR-5 ovarian was above 100 µM throughout. Further, the TGI in the assay on SF-268 CNS, in the assay on SNB-75 CNS, in the assay on SW-620 colon and in the assay on TK-10 renal was above 100 µM throughout.

For `O=C(NCc1cn(Cc2cccc(Oc3ccccc3)c2)nn1)c1cccnc1NCc1ccc(Cl)cc1`, the GI50 was 4.36 µM in the assay on CAKI-1 renal; 2.18 µM in the assay with COLO 205 colon; 3.24 µM with K-562 leukemia; 2.18 µM in the assay on NCI-H522 lung; 2.86 µM in the assay on NCI/ADR-RES ovarian; 5.62 µM with OVCAR-5 ovarian. Moreover, the GI50 is 4.82 µM in the assay on SF-268 CNS, 2.02 µM in the assay on SNB-75 CNS, 4.04 µM in the assay on SW-620 colon and 3.7 µM with TK-10 renal. Besides, the TGI is above 100 µM in the assay with CAKI-1 renal; 4.04 µM in the assay with COLO 205 colon; above 100 µM in the assay on K-562 leukemia; 5.68 µM in the assay with NCI-H522 lung; above 100 µM in the assay on NCI/ADR-RES ovarian; above 100 µM in the assay on OVCAR-5 ovarian. Further, the TGI was above 100 µM in the assay on SF-268 CNS, 7.77 µM in the assay with SNB-75 CNS, above 100 µM in the assay on SW-620 colon and 49.1 µM in the assay with TK-10 renal.

In the case of `O=C(O)c1c(CC(Cc2ccccc2)C(=O)O)ccc2c1CCC2` (centres undefined), the TGI with CAKI-1 renal, in the assay with COLO 205 colon, with K-562 leukemia, in the assay with NCI-H522 lung, with NCI/ADR-RES ovarian and in the assay on OVCAR-5 ovarian was above 100 µM in each case. The TGI in the assay on SF-268 CNS, in the assay with SNB-75 CNS, in the assay with SW-620 colon and in the assay on TK-10 renal was above 100 µM each time.

As for `CN1CCC(O)(OC(=O)C(c2ccccc2)C2(O)CCCC2)CC1` (centres undefined), the TGI in the assay on CAKI-1 renal, in the assay with COLO 205 colon, with K-562 leukemia, in the assay on NCI-H522 lung, in the assay on NCI/ADR-RES ovarian and in the assay on OVCAR-5 ovarian was above 100 µM in each case. Also, the TGI in the assay on SF-268 CNS, in the assay on SNB-75 CNS, in the assay on SW-620 colon and in the assay with TK-10 renal was above 100 µM in each case.

For `CC(C)(C)c1cc(C(C)(C)C)c(SC2OC(CO)C(O)C(O)C2O)c(O)c1O` (centres undefined), the TGI in the assay on CAKI-1 renal is above 84.9 µM; with COLO 205 colon it was above 81.4 µM; with K-562 leukemia it was above 39.8 µM; in the assay on NCI-H522 lung, 20.9 µM; in the assay on NCI/ADR-RES ovarian, 34.3 µM; in the assay with OVCAR-5 ovarian it was 32.1 µM. Further, the TGI was 20.4 µM in the assay on SF-268 CNS, 6.05 µM in the assay with SNB-75 CNS, 49.9 µM with SW-620 colon and 46.3 µM in the assay on TK-10 renal.

For the compound `O=C(CCC(NC(=O)OCc1ccccc1)C(=O)OCc1ccccc1)Nc1cccc(OCc2ccccc2)c1` (centres undefined), the TGI with CAKI-1 renal is above 100 µM; in the assay on COLO 205 colon it was 31.9 µM; with K-562 leukemia, 52.2 µM; with NCI-H522 lung, 70.1 µM; in the assay with NCI/ADR-RES ovarian, above 100 µM; with OVCAR-5 ovarian it was above 100 µM. In addition, the TGI is 71 µM in the assay with SF-268 CNS, above 100 µM in the assay on SNB-75 CNS, above 100 µM in the assay with SW-620 colon and 90.3 µM in the assay on TK-10 renal.

Regarding `Oc1ccc(Nc2nc(Cl)c3[nH]cnc3n2)cc1`, the TGI in the assay with CAKI-1 renal, in the assay with COLO 205 colon, in the assay with K-562 leukemia, in the assay on NCI-H522 lung, with NCI/ADR-RES ovarian and in the assay on OVCAR-5 ovarian was above 100 µM throughout. Moreover, the TGI in the assay on SF-268 CNS, with SNB-75 CNS, with SW-620 colon and in the assay with TK-10 renal was above 100 µM each time.

Consider `COc1ccc(-c2csc3c2[N+]2(C)C=CC=C2C3N2CCCC2)cc1` (centres undefined), for which the TGI was above 100 µM with CAKI-1 renal; 42.6 µM in the assay on COLO 205 colon; above 100 µM with K-562 leukemia; 19.1 µM in the assay with NCI-H522 lung; 63.7 µM in the assay with NCI/ADR-RES ovarian; above 100 µM in the assay on OVCAR-5 ovarian. Also, the TGI was above 100 µM in the assay with SF-268 CNS, 36.8 µM with SNB-75 CNS, above 100 µM in the assay with SW-620 colon and above 100 µM with TK-10 renal.

Consider `O=C(Oc1cncc(Cl)c1)c1cc2ccccc2sc1=O`, for which the TGI in the assay on CAKI-1 renal is above 100 µM; in the assay with COLO 205 colon it was above 100 µM; in the assay with K-562 leukemia, above 100 µM; in the assay on NCI-H522 lung, 47.3 µM; in the assay on NCI/ADR-RES ovarian, above 100 µM; in the assay with OVCAR-5 ovarian, above 100 µM. The TGI in the assay on SF-268 CNS, with SNB-75 CNS, with SW-620 colon and with TK-10 renal was above 100 µM each time.

Regarding `CCN(CC)CC[n+]1ccc2c(C)c3[nH]c4ccccc4c3c(C)c2c1`, the GI50 in the assay on CAKI-1 renal is 8.97 µM; in the assay with COLO 205 colon, 0.131 µM and 0.297 µM and 0.412 µM; in the assay on K-562 leukemia, 0.1 µM; in the assay with NCI-H522 lung, 0.247 µM; in the assay with NCI/ADR-RES ovarian it was 27.2 µM and 43.6 µM and 87.6 µM; with OVCAR-5 ovarian, 2.74 µM. Besides, the GI50 in the assay with SNB-75 CNS is 0.148 µM; in the assay on SW-620 colon it was 0.654 µM. Besides, the TGI in the assay on CAKI-1 renal was 10.3 µM and > 38.3 µM and 7.08 µM; in the assay on COLO 205 colon, 0.525 µM and 0.878 µM and 1.55 µM; with K-562 leukemia, 5.43 µM and 3.49 µM and 2.19 µM; with NCI-H522 lung, 1.36 µM and 2.58 µM and 1.87 µM; in the assay on NCI/ADR-RES ovarian, 48.1 µM and 125 µM; in the assay with OVCAR-5 ovarian, 5.15 µM and 15 µM and 7.28 µM. Further, the TGI with SF-268 CNS was 1.07 µM and 1.28 µM and 1.64 µM; in the assay with SNB-75 CNS, 1.14 µM and 0.847 µM and 1.23 µM; in the assay on SW-620 colon, 5.65 µM and 13.2 µM and 6.96 µM; in the assay with TK-10 renal, 25.3 µM.

In the case of `CCOC(=O)/C=C(/C(=O)OCC)n1cc(C)c(=O)n(Cc2cn(CCCCOC(C)=O)nn2)c1=O`, the TGI in the assay on CAKI-1 renal was 6.46 µM; in the assay with COLO 205 colon it was above 100 µM; with K-562 leukemia, above 100 µM; in the assay with NCI-H522 lung, 4.53 µM; with NCI/ADR-RES ovarian, 65.6 µM; in the assay on OVCAR-5 ovarian, 41 µM. The TGI is 38.7 µM with SF-268 CNS, 32.6 µM in the assay on SNB-75 CNS, above 100 µM in the assay with SW-620 colon and 16.7 µM with TK-10 renal.

As for `C#CCn1c(I)cc2c(c1=O)COC(=O)[C@]2(O)CC`, the TGI in the assay on CAKI-1 renal, in the assay on COLO 205 colon, with K-562 leukemia, with NCI-H522 lung, in the assay on NCI/ADR-RES ovarian and with OVCAR-5 ovarian was above 100 µM each time. Moreover, the TGI in the assay on SF-268 CNS, in the assay on SNB-75 CNS, with SW-620 colon and with TK-10 renal was above 100 µM each time.

On to `COc1ccc(C2C3=C(COC3=O)Oc3cc4c(cc32)OCO4)cc1OC` (centres undefined), for which the TGI in the assay on CAKI-1 renal is above 100 µM; in the assay with COLO 205 colon, 18.1 µM; in the assay on K-562 leukemia, above 26.8 µM; with NCI-H522 lung, 2.19 µM; in the assay on NCI/ADR-RES ovarian, 7.7 µM; with OVCAR-5 ovarian it was above 100 µM. In addition, the TGI in the assay with SF-268 CNS, in the assay on SNB-75 CNS, in the assay on SW-620 colon and in the assay with TK-10 renal was above 100 µM in each case.

In the case of `CCOP(=O)(OCC)C(c1ccccc1)N(C(=O)NC(F)(F)F)c1ccc(C)cc1` (centres undefined), the TGI with CAKI-1 renal, with COLO 205 colon, in the assay with K-562 leukemia, with NCI-H522 lung, in the assay on NCI/ADR-RES ovarian and in the assay with OVCAR-5 ovarian was above 100 µM each time. Besides, the TGI in the assay with SF-268 CNS, with SNB-75 CNS, in the assay on SW-620 colon and in the assay on TK-10 renal was above 100 µM throughout.

For `COC(=O)c1ccc(C)cc1C1CN=NC12Cc1cccc(C)c1C2=O` (centres undefined), the TGI is above 100 µM in the assay on CAKI-1 renal; above 100 µM with COLO 205 colon; 68.4 µM in the assay with K-562 leukemia; 78.1 µM in the assay with NCI-H522 lung; 67.1 µM with NCI/ADR-RES ovarian; above 100 µM in the assay on OVCAR-5 ovarian. Further, the TGI with SF-268 CNS, in the assay on SNB-75 CNS, in the assay with SW-620 colon and with TK-10 renal was above 100 µM in each case.

With `CC(C)=CC(=O)OC1C2C(C)=CC(=O)C(O)C2(C)C2C3(O)OCC24C(CC(=O)OC14)C(C)C3O` (centres undefined), the GI50 in the assay with CAKI-1 renal was 0.245 µM and 1.13 µM and 0.293 µM; in the assay on COLO 205 colon, 0.117 µM; in the assay on K-562 leukemia, 0.02 µM; with NCI-H522 lung, 0.02 µM; in the assay on NCI/ADR-RES ovarian it was 6.65 µM and 2.24 µM; in the assay with OVCAR-5 ovarian, 0.113 µM. Moreover, the GI50 in the assay with SF-268 CNS is 0.0088 µM; with SNB-75 CNS, 0.0338 µM; in the assay with SW-620 colon, 0.0108 µM and 0.0265 µM; with TK-10 renal, 0.0511 µM. Besides, the TGI in the assay on COLO 205 colon is 0.359 µM and 1.11 µM and 0.42 µM; in the assay on K-562 leukemia, 0.0775 µM and 0.237 µM; with NCI-H522 lung, 0.011 µM and 0.0215 µM; in the assay on SF-268 CNS, 0.049 µM and 0.014 µM and 0.091 µM; in the assay on SNB-75 CNS, 0.0621 µM and 0.0711 µM and 0.062 µM; in the assay with TK-10 renal, 0.0917 µM and 0.81 µM.
